Experimental data reported in patent US9604932B2 (priority 2013, dated 2017).

Key:
[1] = Conversion of prodrug upon exposure to plasma, biological solutions and tissues; format: in vitro ADME; conditions: stable oil until exposure to plasma
[2] = tested on: myocardial ischemia-reperfusion injury; test: Rat model of myocardial ischemia-reperfusion injury; format: in vivo, Sprague-Dawley rats; conditions: protocol only; 10, 30, 80 mg/kg IV
Experimental: In order to test the efficacy of R-107 in a myocardial ischemia reperfusion injury, male aged Sprague-Dawley rats are dosed with R-107 (0, 10, 30, 80 mg/kg IV) 10 minutes prior to the end of a 30 minutes period of ischemia produced by occlusion of the left anterior descending (LAD) coronary artery. Cardiac function is monitored by a Millar catheter for the determination of heart rate (HR), systolic and diastolic blood pressure (BP), left ventricular (LV) systolic BP, LV end-diastolic BP (LVEDP), ±dP/dt, pressure-volume (PV) loop, and tau (τ). 3 hours post-ischemia, blood and myocardium are analyzed for morphologic, histochemical, and bioanalytical injury. The area of necrosis, as a % of area at risk (AAR), and the extent of the no-reflow zone are quantified.

[3] = Incubation of R-107 in mouse plasma, relative concentrations by HPLC; format: in vitro ADME; conditions: R-107 4 mM in mouse plasma, 37° C.
Experimental: In an in vitro study, 2,2,5,5-tetramethyl-3-(nitrooxymethyl)pyrrolidin-1-yl acetate (R-107) was incubated in mouse or rat plasma at 37° C. at a concentration of 4 mM, and the relative concentrations of this compound as well as of its corresponding hydroxylamine, (1-hydroxy-2,2,5,5-tetramethylpyrrolidin-3-yl) methyl nitrate (R-105), and 3-nitratomethyl-2,2,5,5-tetramethylpyrrolidinyloxy (R-100), were measured by HPLC.

[4] = Plasma pharmacokinetics in pig (release of R-100 from R-107), LCMS; format: in vivo; conditions: for concentration at 0.08 h: 0.08 hrs post dose; for concentration at 0.17 h: 0.17 hrs post dose; for concentration at 0.25 h: 0.25 hrs post dose; for concentration at 0.5 h: 0.5 hrs post dose; for concentration at 1 h: 1 hrs post dose; for concentration at -0.08 h: −0.08 hrs post dose
Experimental: In the following two experiments, the pharmacokinetic of releasing R-100 from R-107, via R-105 that is the reduced form of R-100, was studied in vivo according to the protocol described herein.
100 μl aliquots plasma obtained from R-107-treated sheep or pig were thawed and 200 μl ice-cold ethanol was added to each 100 μl sample to precipitate protein. Samples were then vortexed, placed on ice for 10 minutes, and then spun down at room temperature for 15 minutes. A first 100 μl supernatant from each spun sample was withdrawn and placed in a labeled HPLC micro vial to which 300 μl MPA (LC mobile phase A) was added, and the vial contents were then mixed and submitted for LCMS analysis (kept at 4° C.). The concentration of R-107 was measured in this sample as was the concentration of R105. A second 100 μl supernatant from each spun sample was added to a labelled HPLC micro vial to which 300 μl MPA and 2 μl of Reducing solution (ascorbic acid, 1.0 mg/ml in water) were added. These vials were vortexed; incubated at 50° C. for 1 hour with gentle shaking; and were then cooled to 4° C. and submitted for LCMS analysis. This sample was analyzed for R105, i.e., reduced form of R-100, and the amount measured thus represents the sum of R-100 and R-105 originally present in the plasma. The concentration of R-100 can be calculated from that of the R-105 in the second sample minus that of R-105 in the first sample. However, the concentrations of R-105 were seen to be low (approximately 10% or less of those of R-100) and so the results reported below as R-100 are not corrected for R-105.
Sets of standards (R-100, R-105 and R-107) were prepared by spiking individually in pig plasma. 100 μl aliquots of these spiked plasma samples, after thawing, were included in the above extraction protocol.
Analysis method were carried out with an Agilent HPLC stack, with column eluate directed, via a diverter valve, into the source of an AB Sciex ‘Qstar Elite’ Hybrid TOF, high-resolution mass spectrometer. LC column: Phenomenex Kinetex C18 2.6u 100A, 2.1×50 mm. LC mobile phase A: H2O with 0.02% trifluoroacetic acid (TFA), 0.1% formic acid (HOF); Phase B: acetonitrile (ACN) with 0.02% TFA, 0.1% HOF. Mobile phase flow rate=500 μl/min. Injection size: 8 μl, via Agilent 1100 u-WPS autosampler.

[5] = tested on: acute retinal ischemia-reperfusion injury; test: Porcine model of acute retinal ischemia-reperfusion injury; format: in vivo; conditions: protocol only; 10, 30, 80 mg/kg/day IV BID
Experimental: In this study, a porcine model of acute retinal ischemia-reperfusion injury (n=6 per group) is induced by equilibration with an elevated saline reservoir to create a static IOP of 90 mmHg for 90 min. Task #1: Microvascular responsiveness: A dose-response of parenteral R-107 (0, 10, 30, 80 mg/kg/day IV BID) is initiated 10 minutes before reperfusion. 1 hour after reperfusion, retinal microvessels are harvested and cannulated for ex vivo analysis of vascular responsiveness to endothelium dependent and independent vasodilators. Task #2: Retinal function and morphology: R-107 is given 10 minutes before reperfusion (at a dose determined by Task #1) and its efficacy judged by electroretinogram (1, 2, 7 days post-reperfusion) and retinal histology, ultrastructure, and drug concentration (Day 7).

[6] = tested on: limb ischemia reperfusion injury (LIRI); test: Minipig model of limb ischemia-reperfusion injury; format: in vivo, minipigs; conditions: protocol only; 10, 30, 80 mg/kg/day TID
Experimental: In this study, the efficacy of R-107 in a limb ischemia reperfusion injury (LIRI) is tested. In a large animal model of acute LIRI (n=6 minipigs per group) induced by an endovascular balloon occlusion of the femoral artery for 6 hours, parenteral R-107 (0, 10, 30, 80 mg/kg/day TID) is initiated 10 minutes before reperfusion via direct arterial infusion, followed by an IV infusion thereafter. At 7, 14, and 21 days after reperfusion, limb perfusion (by Doppler flow) is correlated with nerve conduction velocity (NCV, per electromyography, EMG), and muscle strength (by foot pressure on a walking surface) with simultaneous plasma concentrations of R-107.

[7] = IV R-107 diluted in 4 parts of PEG400, 18 mg/kg over 6 minutes, 24 hrs post dose
[8] = capsule per os of neat R-107 88 mg/kg, 24 hrs post dose
[9] = plasma, IV R-107 diluted in 4 parts of PEG400, 18 mg/kg over 6 minutes
[10] = plasma, IV neat R-107 88 mg/kg over 6 minutes
[11] = plasma, oral, capsule per os of neat R-107 88 mg/kg

CC(=O)ON1C(C)(C)CC(CO[N+](=O)[O-])C1(C)C (stereo not shown) [R-107, 2,2,5,5-tetramethyl-3-(nitrooxymethyl)pyrrolidin-1-yl acetate]
Stability / conversion upon exposure to plasma [1]: readily converted to its corresponding 1-pyrrolidinyloxy derivative R-100 | Efficacy in rat model of myocardial ischemia-reperfusion injury [2]: Effective | Relative concentration of R-107 ([3]; 0.1 hrs): 326 | Relative concentration of R-107 ([3]; 1.5 hrs): 284 | Relative concentration of R-107 ([3]; 20 hrs): 0 | R-107 in plasma ([4]; IV R-107 diluted in 4 parts of PEG400, 18 mg/kg over 6 minutes, 2 hrs post dose): not detected | R-107 in plasma ([4]; IV R-107 diluted in 4 parts of PEG400, 18 mg/kg over 6 minutes, 4 hrs post dose): not detected | R-107 in plasma ([4]; IV R-107 diluted in 4 parts of PEG400, 18 mg/kg over 6 minutes, 8 hrs post dose): not detected | R-100 in plasma [4, 7]: not detected | R-107 in plasma [4, 7]: not detected | R-107 in plasma ([4]; IV neat R-107 88 mg/kg over 6 minutes, 6 hrs post dose): not detected | R-107 in plasma ([4]; IV neat R-107 88 mg/kg over 6 minutes, 24 hrs post dose): not detected | R-107 in plasma ([4]; capsule per os of neat R-107 88 mg/kg, 8 hrs post dose): not detected | R-100 in plasma [4, 8]: not detected | R-107 in plasma [4, 8]: not detected | concentration at 0.08 h [4, 9]: 2380 ng/mL | concentration at 0.17 h [4, 9]: 640 ng/mL | concentration at 0.25 h [4, 9]: 430 ng/mL | concentration at 0.5 h [4, 9]: 250 ng/mL | concentration at 1 h [4, 9]: 220 ng/mL | concentration at -0.08 h [4, 9]: 0 ng/mL | concentration at 0.08 h [4, 10]: 5240 ng/mL | concentration at 0.17 h [4, 10]: 5870 ng/mL | concentration at 0.25 h [4, 10]: 3430 ng/mL | concentration at 0.5 h [4, 10]: 1320 ng/mL | concentration at 1 h [4, 10]: 360 ng/mL | concentration at 2 h ([4]; plasma, IV neat R-107 88 mg/kg over 6 minutes, 2 hrs post dose): 260 ng/mL | concentration at -0.08 h [4, 10]: 0 ng/mL | concentration at 0.08 h [4, 11]: 1.32 ng/mL | concentration at 0.17 h [4, 11]: 0.715 ng/mL | concentration at 0.5 h [4, 11]: 0.345 ng/mL | concentration at 1 h [4, 11]: 0.11 ng/mL | concentration at 2 h ([4]; plasma, oral, capsule per os of neat R-107 88 mg/kg, 2 hrs post dose): 0.222 ng/mL | concentration at 3 h ([4]; plasma, oral, capsule per os of neat R-107 88 mg/kg, 3 hrs post dose): 0.11 ng/mL | concentration at 4 h ([4]; plasma, oral, capsule per os of neat R-107 88 mg/kg, 4 hrs post dose): 0.122 ng/mL | Efficacy in porcine model of acute retinal ischemia-reperfusion injury [5]: Effective | Efficacy in minipig model of limb ischemia-reperfusion injury [6]: Effective
